# “Also recorded” adds a separate entry of the source.
# Legend:
# HSV-2 186 = assay: Viral replication yield reduction assay; format: cell-based, herpes simplex virus type-2 (HSV-2); details: selectivity index, Vero
# Vero cells = assay: Cytotoxicity in Vero cells
# HIV-1 virus = assay: Anti-HIV activity: Jurkat cells infected with HIV-1, MTT assay and RT assay; format: cell-based; details: 1 μg/mL or 5 μg/mL, compared with DMSO and AZT
# [1] = cited from earlier work
# [2] = molecular target: human serum albumin (HSA) (Homo sapiens, UniProt P02768); assay: Fluorescence titration with HSA; format: binding
# Sequence of human serum albumin (HSA) (P02768 25-609): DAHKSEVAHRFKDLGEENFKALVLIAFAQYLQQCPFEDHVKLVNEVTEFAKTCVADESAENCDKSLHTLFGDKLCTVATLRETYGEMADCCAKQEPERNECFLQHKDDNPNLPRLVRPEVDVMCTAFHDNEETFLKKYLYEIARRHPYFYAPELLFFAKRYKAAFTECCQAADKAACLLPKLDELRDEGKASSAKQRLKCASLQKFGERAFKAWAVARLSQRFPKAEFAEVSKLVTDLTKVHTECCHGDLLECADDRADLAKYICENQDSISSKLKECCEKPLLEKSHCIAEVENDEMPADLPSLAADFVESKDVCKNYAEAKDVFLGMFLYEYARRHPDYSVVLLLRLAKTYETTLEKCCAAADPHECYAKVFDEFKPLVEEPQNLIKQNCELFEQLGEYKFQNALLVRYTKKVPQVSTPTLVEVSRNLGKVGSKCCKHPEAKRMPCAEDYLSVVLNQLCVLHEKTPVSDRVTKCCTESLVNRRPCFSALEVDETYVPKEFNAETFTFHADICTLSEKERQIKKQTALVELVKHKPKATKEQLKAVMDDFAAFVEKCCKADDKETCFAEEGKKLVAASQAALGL
# HSA = details: betulinic acid 0.01−0.1 mM, HSA 0.025 mM, fluorescence excitation at 285 nm; ref [34]; cited from earlier work
# [3] = test system: Multiple HSV-2 (including 186); details: Vero, multiple HSV-2 isolates including 186; ref [32], [33]; cited from earlier work
Structure (SMILES),SI (HSV-2 186),cellular cytotoxicity (in words) (Vero cells),inhibitory activity of HIV-1 RT (in words) (HIV-1 virus),"solubility in DMSO ([1]; 25 °C, ref [23])","solubility in ethanol ([1]; 25 °C, ref [23])","solubility in water ([1]; room temperature, ref [22])","Kd ([2]; Kd (285 nm), fluorescence excitation at 285 nm) [nM]","Kd ([2]; Kd (295 nm), fluorescence excitation at 295 nm) [nM]",binding constant with HSA (HSA) [M⁻¹],IC50 [3] [nM]
"C=C(C)[C@@H]1CC[C@]2(C(=O)O)CC[C@]3(C)[C@H](CC[C@@H]4[C@@]5(C)CC[C@H](O)C(C)(C)[C@@H]5CC[C@]43C)[C@@H]12 [Compound 1, 3β-hydroxy-lup-20(29)-en-28-oic acid]",> 62.5,low cytotoxicity; also recorded: minimal cellular cytotoxicity,no inhibitory activity,5 % (w/v),1 % (w/v),about 0.02 μg mL^−1,4500,1300,1.685e+06,
Nc1nc2c(ncn2COCCO)c(=O)[nH]1 [Acyclovir],,,,,,,,,,100 to 10000

# From publication PMC4494873 (Bioorganic & medicinal chemistry letters, 2015)
